From US12384777B2 (Tay Therapeutics Limited, priority 2019, dated 2025)
Read-outs that look alike come from different tables or passages of the source.

Legend:
BRD4 BD1 = BRD4 BD1 (Homo sapiens (Human), UniProt O60885); test: Bromodomain binding assay (T7 phage display, qPCR), BRD4 BD1; settings: read-out: BRD4 BD1 Kd
Protocol: (§1) T7 phage strains displaying bromodomains were grown in parallel in 24-well blocks in an E. coli host derived from the BL21 strain. E. coli were grown to log-phase and infected with T7 phage from a frozen stock (multiplicity of infection=0.4) and incubated with shaking at 32° C. until lysis (90-150 min). The lysates were centrifuged (5,000×g) and filtered (0.2 μm) to remove cell debris. Streptavidin-coated magnetic beads were treated with biotinylated small molecule or acetylated peptide ligands for 30 min at RT to generate affinity resins for bromodomain assays. The ligated beads were blocked with excess biotin and washed with blocking buffer (SeaBlock (Pierce), 1% BSA, 0.05% Tween 20, 1 mM DTT) to remove unbound ligand and to reduce non-specific phage binding. Binding reactions were assembled by combining bromodomains, ligated affinity beads, and test compounds in 1× binding buffer (16% SeaBlock, 0.32×PBS, 0.02% BSA, 0.04% Tween 20, 0.004% Sodium azide, 7.9 mM DTT). Test compounds were prepared as 1000× stocks in 100% DMSO and subsequently diluted 1:25 in MEG. The compounds were then diluted directly into the assays such that the final concentrations of DMSO and MEG were 0.1% and 2.4%, respectively. All reactions were performed in polypropylene 384-well plates in a final volume of 0.02 ml. The assay plates were incubated at RT with shaking for 1 hr and the affinity beads were washed with wash buffer (1×PBS, 0.05% Tween 20). The beads were then re-suspended in elution buffer (1×PBS, 0.05% Tween 20, 2 μM non-biotinylated affinity ligand) and incubated at RT with shaking for 30 min. The bromodomain concentration in the eluates was measured by quantitative polymerase chain reaction (qPCR).
(§2) An 11-point 3-fold serial dilution of each test compound was prepared in 100% DMSO at 1000× final test concentration. All compounds were distributed by acoustic transfer (non-contact dispensing) in 100% DMSO. The compounds were then diluted directly into the assays such that the final concentration of DMSO was 0.09%. Most dissociation constants were determined using a compound top concentration=10,000 nM. If the initial dissociation constant determined was <0.169 nM (the lowest concentration tested), the measurement was repeated with a serial dilution starting at a lower top concentration.
(§3) The same bromodomain assay procedure as that outlined above was used. Example compounds were screened at 30 times their Kd, and results for primary screen binding interactions are reported as ‘% Ctrl’, where lower numbers indicate stronger hits in the matrix.

BRD4 BD2 = BRD4 BD2 (Homo sapiens (Human), UniProt O60885); test: Bromodomain binding assay (T7 phage display, qPCR), BRD4 BD2; settings: read-out: BRD4 BD2 Kd
Protocol: as §1, §2, §3

[1] = system: CD4+ T-cells stimulated by CD2, CD3 and CD28 antibodies; test: Cellular activity IL-4: reduction of IL-4 levels in activated CD4+ T-cells; format: cell-based, human
Protocol: • 1. CD4^+ T-cells are isolated from cryopreserved human peripheral blood mononuclear cells (PBMCs) using EasySep™ Kit (Cat. No. 17952, Stemcell Technologies). • 2. CD2, CD3 and CD28 antibodies coated beads from T cell Activation/Expansion Kit (Cat. No. 130-091-441, Miltenyi Biotec) are added to the CD4^+ T-cells at a bead-to-cell ratio of 1:2. • 3. CD4^+ T-cells along with the beads are seeded at 2×10^5 cells/well in a round bottom 96-well plate and treated with different compounds and controls in a total volume of 200 μl. • 4. The cells are cultured for 48 hrs at 37° C., 5% CO2. • 5. Supernatant is collected and IL-4 is analysed by ELISA.

human liver hepatocytes = test: Intrinsic clearance in human liver hepatocytes; format: in vitro ADME; settings: human cryopreserved hepatocytes, 0.5 μM test compound
Protocol: Vials of human cryopreserved hepatocytes, supplied by Life Technologies, were thawed according to manufacturer's instructions and cells re-suspended in Williams Medium E (WME) containing cell maintenance supplement pack (CM4000, Life Technologies). Hepatocytes were incubated in suspension (0.5 million cells/mL) in 48 well non-collagen coated cell culture plates for 10 min at 37° C., 5% CO2. Upon addition of an equal volume of supplemented WME containing 1 μM test compound, an aliquot of incubation solution was removed to acetonitrile containing internal standard (final concentration 0.5 μM test compound and a cell density of 0.25 million cells/mL). Similarly, aliquots were removed at 3, 6, 9, 15, 30, 45, 60, 90 and 120 min. 100 μL of 80:20 water:acetonitrile was added to all samples and the analysis plate was centrifuged for 10 min at RT prior to injection and analysis of samples by UPLC-MS/MS. The response (area ratio of test compound to internal standard) was plotted against time using an exponential decay model from which rate of disappearance was calculated.

[2] = Homo sapiens, T-cell, 48 hrs, ELISA, read-out: EC50 reduction of IL-4 levels
[3] = Homo sapiens, T-cell, read-out: cellular EC50 values, reduction of IL-4 levels

| Structure (SMILES) | Kd (BRD4 BD1) | Kd (BRD4 BD2) | EC50 [1, 2] | EC50 [1, 3] | Intrinsic clearance, % Liver Blood Flow (human liver hepatocytes) | EC50 ([1]; 48 hrs, ELISA, read-out: EC50 reduction of IL-4 levels) |
| --- | --- | --- | --- | --- | --- | --- |
| CCCOc1ncsc1-c1cn(C)c(=O)c2[nH]ccc12 [Example 46, 6-methyl-4-(4-propoxythiazol-5-yl)-1,6-dihydro-7H-pyrrolo[2,3-c]pyridin-7-one] | 100 to 1000 nM | 10 to 100 nM | 10 to 100 nM | < 100 nM | 89 % Liver Blood Flow | – |
| Cn1cc(-c2scnc2Oc2ccc(O)cc2)c2cc[nH]c2c1=O [Example 20, 4-(4-(4-hydroxyphenoxy)thiazol-5-yl)-6-methyl-1,6-dihydro-7H-pyrrolo[2,3-c]pyridin-7-one] | 10 to 100 nM | – | 10 to 100 nM | < 100 nM | – | – |
| Cn1cc(-c2cc(O)ccc2Oc2ccccc2)ccc1=O [Example 8, 5-(5-hydroxy-2-phenoxyphenyl)-1-methyl pyridin-2(1H)-one] | 10 to 100 nM | – | 100 to 1000 nM | – | 95 % Liver Blood Flow | – |
| Cn1cc(-c2scnc2OC2CCC2)c2cc[nH]c2c1=O [Example 45, 4-(4-cyclobutoxythiazol-5-yl)-6-methyl-1,6-dihydro-7H-pyrrolo[2,3-c]pyridin-7-one] | 100 to 1000 nM | 10 to 100 nM | – | – | 86 % Liver Blood Flow | – |
| Cc1cc(F)cc(C)c1Oc1c(-c2cn(C)c(=O)c3[nH]c(C(=O)NC4(C)CC4(F)F)cc23)ccn(C)c1=O (stereo not drawn) [Example 44, N-(2,2-difluoro-1-methylcyclopropyl)-4-(3-(4-fluoro-2,6-dimethylphenoxy)-1-methyl-2-oxo-1,2-dihydropyridin-4-yl)-6-methyl-7-oxo-6,7-dihydro-1H-pyrrolo[2,3-c]pyridine-2-carboxamide] | > 1000 nM | 10 to 100 nM | 100 to 1000 nM | – | 34 % Liver Blood Flow | – |
| Cc1cc(F)cc(C)c1Oc1c(-c2cn(C)c(=O)c3[nH]c(C(=O)NC(C)(C)C(F)(F)F)cc23)ccn(C)c1=O [Example 43] | > 1000 nM | 10 to 100 nM | 100 to 1000 nM | – | 38 % Liver Blood Flow | – |
| Cc1cc(F)cc(C)c1Oc1c(-c2cn(C)c(=O)c3[nH]c(C(=O)NC(C)(C)C)cc23)ccn(C)c1=O [Example 42, N-(tert-butyl)-4-(3-(4-fluoro-2,6-dimethylphenoxy)-1-methyl-2-oxo-1,2-dihydropyridin-4-yl)-6-methyl-7-oxo-6,7-dihydro-1H-pyrrolo[2,3-c]pyridine-2-carboxamide] | > 1000 nM | ≤ 10 nM | 100 to 1000 nM | – | <34 % Liver Blood Flow | – |
| Cn1ccc(-c2cn(C)c(=O)c3[nH]ccc23)c(Oc2ccccc2)c1=O [Example 5, 6-methyl-4-(1-methyl-2-oxo-3-phenoxy-1,2-dihydropyridin-4-yl)-1,6-dihydro-7H-pyrrolo[2,3-c]pyridin-7-one] | 10 to 100 nM | ≤ 10 nM | ≤ 10 nM | < 100 nM | <34 % Liver Blood Flow | – |
| Cc1cc(F)cc(C)c1Oc1c(-c2ccc(=O)n(C)c2)ccn(C)c1=O [Example 39, 3′-(4-fluoro-2,6-dimethylphenoxy)-1,1′-dimethyl-[3,4′-bipyridine]-2′,6(1H,1′H)-dione] | > 1000 nM | 100 to 1000 nM | > 1000 nM | – | – | – |
| Cc1cc(F)cc(C)c1Oc1c(-c2cn(C)c(=O)c3[nH]ccc23)ccn(C)c1=O [Example 47, 4-(3-(4-fluoro-2,6-dimethylphenoxy)-1-methyl-2-oxo-1,2-dihydropyridin-4-yl)-6-methyl-1,6-dihydro-7H-pyrrolo[2,3-c]pyridin-7-one] | – | ≤ 10 nM | – | – | – | 100 to 1000 nM |
| Cn1cc(Oc2cccc(O)c2)c(-c2cn(C)c(=O)c3[nH]ccc23)cc1=O [Example 24, 4-(5-(3-hydroxyphenoxy)-1-methyl-2-oxo-1,2-dihydropyridin-4-yl)-6-methyl-1,6-dihydro-7H-pyrrolo[2,3-c]pyridin-7-one] | 10 to 100 nM | – | 100 to 1000 nM | – | 45 % Liver Blood Flow | – |
| Cn1cc(-c2scnc2Oc2ccccc2)ccc1=O [Example 18, 1-methyl-5-(4-phenoxythiazol-5-yl)pyridin-2(1H)-one] | 100 to 1000 nM | – | > 1000 nM | – | 69 % Liver Blood Flow | – |
| Cn1cc(-c2scnc2Oc2ccccc2)c2cc[nH]c2c1=O [Example 4, 6-methyl-4-(4-phenoxythiazol-5-yl)-1,6-dihydro-7H-pyrrolo[2,3-c]pyridin-7-one] | 10 to 100 nM | ≤ 10 nM | 10 to 100 nM | < 100 nM | 80 % Liver Blood Flow | – |
| Cn1cc(-c2cc(O)ccc2OC2CCC2)c2cc[nH]c2c1=O [Example 10, 4-(2-cyclobutoxy-5-hydroxyphenyl)-6-methyl-1,6-dihydro-7H-pyrrolo[2,3-c]pyridin-7-one] | ≤ 10 nM | – | 10 to 100 nM | < 100 nM | 93 % Liver Blood Flow | – |
| Cc1cc(F)cc(C)c1Oc1c(-c2cn(C)c(=O)c3[nH]ccc23)ccn(C)c1=O [Example 40, 4-(3-(4-fluoro-2,6-dimethylphenoxy)-1-methyl-2-oxo-1,2-dihydropyridin-4-yl)-6-methyl-1,6-dihydro-7H-pyrrolo[2,3-c]pyridin-7-one] | 100 to 1000 nM | 10 to 100 nM | 100 to 1000 nM | – | <34 % Liver Blood Flow | – |
| Cn1cc(Oc2ccccc2)c(-c2cn(C)c(=O)c3[nH]ccc23)cc1=O [Example 7, 6-methyl-4-(1-methyl-2-oxo-5-phenoxy-1,2-dihydropyridin-4-yl)-1,6-dihydro-7H-pyrrolo[2,3-c]pyridin-7-one] | 10 to 100 nM | ≤ 10 nM | 10 to 100 nM | < 100 nM | <34 % Liver Blood Flow | – |
